# Laboratory results reported in PMC9595134, “Novel pituitary actions of GnRH in teleost: The link between reproduction and feeding regulation” (Frontiers in Endocrinology, 2022).
# Where a SMILES comes first, the peptide text is derived from it. [ ]: non-standard residue; d: D form. pGlu = O=C1CC[C@@H](C(=O)O)N1
# Legend:
# [1] = system: grass carp pituitary cells; test: qRT-PCR of reproductive hormone genes in pituitary cells; format: cell-based, grass carp (Ctenopharyngodon idellus)
# Experimental: (§1) The preparation of grass carp pituitary cells was performed as mentioned above. After drug treatment, the total RNA of these cells was isolated by TRIzol reagent and reverse transcribed into cDNA with Hifair™ III 1st Strand cDNA Synthesis Kit. The transcript levels of several anorectic peptides (POMCb, CART2, UTS1, NMBa, NMBb, and Lepr) and reproductive genes (GtHα, LHβ, FSHβ, INHBa, SgII, DRD2) were detected by using an ABI 7500 quantitative real-time PCR (qRT-PCR) system (Biosystems, USA) (information of primers for target genes is listed in Supplementary Table S3 ). In this process, a serial gradient dilution of plasmid DNA of these genes was used as a standard for data calibration. The conditions of qRT-PCR were set to 10 min, 95°C, for pre-degeneration; 15 s, 95°C, for degeneration; 30 s, 55°C–60°C, for annealing; 30 s, 72°C, for extending; and 20 s, 82°C, for signal detection with 40 cycles. Finally, the melt curve obtained through each test was used to verify and check the reliability and specificity of the corresponding qRT-PCR.
# (§2) The transcript level was detected using qRT-PCR by ABI 7500 software, while the data calibration of each reaction was performed through standard curves with the dynamic range of 10^5 and correlation coefficient >0.95. The transcript level of β-actin was used as an internal control, and target gene mRNA expression was normalized and calculated as a percentage of the mean value (as “% Ctrl”). Based on merging four to eight replicates (as mean ± SEM), the data were analyzed with a one-way ANOVA to differentiate the significant differences from other treatment experiments. The SPSS Statistics 26.0 software was used to do a Dunnett’s post-hoc test. […] The different letters represent a significant difference at p < 0.05 between groups.
# To further verify the reproductive function of GnRHs, time- and dose-dependent tests were performed to detect GnRH2- or GnRH3-regulated GtHα, LHβ, FSHβ, INHBa, SgII, and DRD2 mRNA expression in grass carp pituitary cells. […] In the dose-dependent test, a continuous gradient dilution of GnRH2 (0.1–1,000 nM) or GnRH3 (0.1–1,000 nM) was incubated with grass carp pituitary cells for 24 h.
# Figure 5 Regulation of reproductive hormone gene mRNA expression by GnRH2 and GnRH3 in grass carp pituitary cells. (A) Time-course experiment of grass carp GnRH2 (1 μM) and GnRH3 (1 μM) on GtHα, LHβ, FSHβ, INHBa, SgII, and DRD2 mRNA expression in grass carp pituitary cells. (B) Dose dependence of a 24-h treatment with increasing levels of GnRH2 and GnRH3 (0.1–1,000 nM) on GtHα, LHβ, FSHβ, INHBa, SgII, and DRD2 mRNA expression in grass carp pituitary cells. After drug treatment, the pituitary cells were extracted to total RNA, reversed transcribed, and used for RT-PCR to detect the target genes’ mRNA expression. […] The different letters represent a significant difference at p < 0.05 between groups (ANOVA followed by a Dunnett test).
# [2] = system: grass carp pituitary cells; test: qRT-PCR of anorectic genes in pituitary cells; format: cell-based, grass carp (Ctenopharyngodon idellus)
# Experimental: as §1, §2
# To further verify the functional role of GnRH2 and GnRH3 on feeding regulation, time- and dose-dependent tests were performed to detect the effect of GnRH2 and GnRH3 on anorectic gene (POMCb, CART2, UTS1, NMBa, NMBb, and LEPR) mRNA expression. In the time-course test, the grass carp pituitary cells were incubated by GnRH2 or GnRH3 (1 μM) for 3, 6, 12, and 24 h, respectively. […] In the dose-dependent test, grass carp pituitary cells were incubated by the continuous gradient dilution of GnRH2 or GnRH3 (0.1–1,000 nM) for 24 h.
# Figure 9 Regulation of feeding hormone gene mRNA expression by GnRH2 and GnRH3 in grass carp pituitary cells. (A) Time-course experiment of grass carp GnRH2 (1 μM) and GnRH3 (1 μM) on POMCb, CART2, UTS1, NMBa, NMBb, and LEPR mRNA expression in grass carp pituitary cells. (B) Dose dependence of a 24-h treatment with increasing levels of GnRH2 and GnRH3 (0.1–1,000 nM) on POMCb, CART2, UTS1, NMBa, NMBb, and LEPR mRNA expression in grass carp pituitary cells. […]
# goldfish = system: goldfish; design: method as in PMID 7507838, PMID 8045371; conditions: sexually regressed animals, ref [34], [35]; cited from earlier work
# pituitary = conditions: teleost; ref [5], [10]; cited from earlier work
# Excerpt: Subsequently, GnRH2 had been firstly found in chicken so that this variant was also named as chicken GnRH (cGnRH) ([3]). In addition, the third GnRH variant (GnRH3) was an ubiquitous and unique subtype existing in fish ([3]), which was primitively discovered in salmon so that it was named as salmon GnRH (sGnRH) ([4]). Multiple GnRH variants (two or three forms) are present in all teleosts ([5]), but the receptor selectivity a ...
# [3] = 1 μM, time-dependent, Figure 5A
smiles,measurement,setting,value
CC(C)C[C@H](NC(=O)[C@H](Cc1c[nH]c2ccccc12)NC(=O)CNC(=O)[C@H](Cc1ccc(O)cc1)NC(=O)[C@H](CO)NC(=O)[C@H](Cc1c[nH]c2ccccc12)NC(=O)[C@H](Cc1c[nH]cn1)NC(=O)[C@@H]1CCC(=O)N1)C(=O)N1CCC[C@H]1C(=O)NCC(N)=O [GnRH3] ([pGlu]HWSYGWLPG-NH2),"effect on DRD2 mRNA expression, time course",[1]; [3],inhibit
same,"effect on GtHα, LHβ, FSHβ, INHBa, and SgII mRNA expression, time course",[1]; [3],significantly induce
same,"effect on DRD2 mRNA expression, dose test","[1]; 0.1–1,000 nM (all treated doses), 24 h, Figure 5B",significantly inhibit
same,"effect on GtHα, LHβ, FSHβ, INHBa, and SgII mRNA expression, dose dependence","[1]; 0.1–1,000 nM, 24 h, dose-dependent, Figure 5B",significantly induce
same,"effect on POMCb, CART2, UTS1, NMBa, NMBb, and LEPR mRNA expression, time course","[2]; 1 μM, 3, 6, 12, and 24 h, time-dependent, Figure 9A",significantly induce
same,"effect on POMCb, CART2, UTS1, NMBa, NMBb, and LEPR mRNA expression, dose dependence","[2]; 0.1–1,000 nM, 24 h, dose-dependent, Figure 9B",significantly induce
same,LH-releasing activity,goldfish,potent LH-releasing activity
same,effect on LH and FSH secretion in the pituitary,pituitary,could stimulate
